In patent US5994384A, “Pharmaceutical compositions of levo-enantiomers of medetomidine derivatives and their use” (Orion Corporation, priority 1995, dated 1999):

How the values were obtained:
adrenergic α-2 receptors [1] = biological target: T1, adrenergic α-2 receptors (Homo sapiens, UniProt P08913); details: HEL cells; for antagonism of receptor activation to UK 14,304 by prior administration: intracellular Ca2+, 10 μM UK 14,304, 10 μM I-medetomidine, 1 μM rauwolscine
T1 sequence (P08913 1-465): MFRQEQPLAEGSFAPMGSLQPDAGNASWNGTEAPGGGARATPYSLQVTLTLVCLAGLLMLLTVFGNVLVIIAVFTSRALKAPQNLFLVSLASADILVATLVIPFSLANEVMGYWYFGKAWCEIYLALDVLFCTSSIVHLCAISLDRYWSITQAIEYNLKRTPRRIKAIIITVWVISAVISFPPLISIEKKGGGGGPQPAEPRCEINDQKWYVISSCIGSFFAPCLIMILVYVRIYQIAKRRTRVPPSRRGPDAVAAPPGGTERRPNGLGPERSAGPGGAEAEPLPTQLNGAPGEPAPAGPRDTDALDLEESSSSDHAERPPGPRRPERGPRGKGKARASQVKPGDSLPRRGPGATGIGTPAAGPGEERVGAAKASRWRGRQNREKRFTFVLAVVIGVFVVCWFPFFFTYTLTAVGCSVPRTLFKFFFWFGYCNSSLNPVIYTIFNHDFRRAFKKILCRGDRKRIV
Excerpt: This system was used to screen different adrenergic α-2 receptor agonists for functional purposes.
The cells were loaded with fura-2/AM (Molecular probes, Junction City, USA). […] The dye responses were calibrated by sequential addition of digitonin and EGTA at the end of the experiment to obtain maximal and minimal fluorescence values, respectively.

adrenergic α-2 receptors [2] = biological target: T1, adrenergic α-2 receptors; assay: cell-based; set-up: This cell line has been used as a model system for studying adrenergic α-2 receptors; endogenous in cells; host or cells: HEL (human erythroleukemia) cells
Experimental: The intracellular concentration of cAMP was measured by prelabelling the cells with [^3 H]adenine (Amersham, UK) as described by Jansson et al (1985, Eur. J. Pharmacol. […], 165). Separation of [^3 H]ATP and [^3 H]cAMP was achieved by the method of Salomon et al. (1974, Anal. Biochem. 58, 541). Conversion of cell-associated [^3 H]ATP to [^3 H]cAMP was expressed as a percentage of the total radioactivity and normalized to the percentage recovery of [^14 C]cAMP tracer.

| SMILES | decrease of the concentration of Ca2+ level (adrenergic α-2 receptors [1]; 10 μM compound) [nM] | antagonism of receptor activation to UK 14,304 by prior administration (adrenergic α-2 receptors [1]) | activation at 10 µM (adrenergic α-2 receptors [2]; HEL, read-out: further stimulation of forskolin stimulated cAMP production) [%] | increase in the production of cAMP (adrenergic α-2 receptors [2]; hel cells) [fold] |
| --- | --- | --- | --- | --- |
| Cc1cccc([C@@H](C)c2cnc[nH]2)c1C [I-medetomidine, Levomedetomidine] | -17 ± 2 | did not antagonise receptor activation to UK | 42 ± 27 | – |
| C=C[C@@]1(C)CC(=O)[C@]2(O)[C@@]3(C)[C@@H](O)CCC(C)(C)[C@@H]3[C@H](O)[C@H](OC(C)=O)[C@@]2(C)O1 [forskolin, reference compound] | – | – | – | 10 |
| COC(=O)[C@H]1[C@H]2C[C@H]3c4[nH]c5ccccc5c4CCN3C[C@H]2CC[C@@H]1O [rauwolscine, reference compound] | – | did | – | – |
